Data reported in US8929978B2, “Phototherapy devices and methods comprising optionally substituted terphenyl and quaterphenyl compounds” (Nitto Denko Corporation, priority 2011, dated 2015).

Tests used:
[1] = system: person suffering from age-related macular degeneration; assay: Verteporphin activated by red OLED light in age-related macular degeneration; assay type: in vivo; settings: about 6 mg/m^2 i.v.; retina illuminated about 15 minutes after start of infusion with red OLED
[2] = system: person suffering from pathological myopia; assay: Verteporphin activated by red OLED light in pathological myopia; assay type: in vivo; settings: about 6 mg/m^2 i.v.; retina illuminated about 15 minutes after start of infusion with red OLED
[3] = system: person suffering from presumed ocular histoplasmosis; settings: in vivo, iv
[4] = system: CHO-K1 (Chinese Hamster Ovarian Cancer, ATCC, CRL-2243) cell line; assay: Ex-vivo efficacy study with OLED Device A and ALA (MTT cell viability, microscopy)
[5] = system: person suffering from actinic keratoses; assay: Photodynamic treatment of actinic keratoses lesions with red OLED light; settings: 20% topical solution; illuminated about 14-18 hours after application with red OLED of Example 2

C=Cc1c(C)c2cc3nc(cc4[nH]c(cc5nc(cc1[nH]2)C(C)=C5CCC(=O)O)c(CCC(=O)OC)c4C)[C@@]1(C)C3=CC=C(C(=O)OC)[C@H]1C(=O)OC [Verteporphin]
patient's vision after treatment [1]: stabilized
patient's vision after treatment [2]: stabilized
patient's vision after treatment [3]: stabilized

NCC(=O)CCC(=O)O [ALA, 5-aminolevulinic acid]
cell necrosis, 20 mW/cm^2 versus 10 mW/cm^2 output power ([4]; ALA 1 mM, irradiation time 25 min at 20 mW/cm^2 and 50 min at 10 mW/cm^2 (FIG. 17)): somewhat faster with 20 mW/cm^2 than 10 mW/cm^2
generation of PpIX (protoporphyrin IX) from ALA in cells ([4]; ALA 0.5, 1, 2 mM, about 16 hrs at 37° C., fluorescence emission at 635 nm): confirmed
cytotoxicity at 1000 µM ([4]; Cricetulus griseus, CHO-K1, light or radiation study, read-out: cells destroyed compared with the reference (MTT cell viability, light dosimetry)): ~90%
cell morphology under optical microscope after light irradiation ([4]; after about 25 J/cm^2 red light (630 nm) irradiation, leafy type cells transform to droplet type (FIG. 14)): significant and irreversible cell death

Cl.NCC(=O)CCC(=O)O [5-Aminolevulinic acid HCl]
number or severity of the lesions after treatment [5]: reduced
